Peptide text beside a SMILES is read from it. * marks the point of attachment. Cbz = O=C(OCc1ccccc1)*; CH2F = FC*
Key:
[1] = system: 4T1 cells; experiment: LDH release assay (CyQUANT); assay type: cell-based, murine; settings: N = 3; for release of LDH (oncolytic activity): 100 µM of the indicated peptides for 6 h, normalized to lysis buffer; for effect of inhibitor pretreatment on CKS1-induced release of LDH: 30 min pre-treatment (50 µM Z-VAD, 50 µM Nec-1s, 1 µM Fer-1), then 100 µM CKS1 6 hours
Protocol: Ten thousand cells were seeded in a 96-well plate and incubated overnight. The cells were washed once, and the medium was replaced with serum-free media. Cells were treated with CKS1 for the indicated time and concentration. CyQUANT LDH cytotoxicity assay (Thermo Fisher Scientific) was used following the manufacturer’s instructions to measure the release of LDH. LDH release was normalized to the amount of LDH released from cells treated with lysis buffer.

[2] = system: caspase-3; settings: cited from earlier work
From the text: The factors that determine whether a peptide induces apoptosis or not are not fully known. […] Although the mechanism of how CKS1 treatment affects the mitochondria remains unanswered, the malfunctioning of mitochondria caused by CKS1 may be the ...

[3] = Solubility in water; settings: data not shown
[4] = system: 4T1 cells; experiment: Calcein-AM live cell imaging of cytosol release; assay type: cell-based, murine; settings: 4T1 cells, 50 µM Z-VAD 30 minutes, then 100 µM CKS1
Protocol: Fluorescence labeling of cells was performed by seeding 5.0 × 10^4 4T1 cells in a 35 mm dish on a collagen-coated No. 1.5 coverslip with a 14 mm glass diameter (MatTek, Ashland, MA). After overnight incubation, the cells were washed once with serum-free media and replaced with fresh serum-free media. For cell cytosol labeling, Calcein-AM (Thermo Fisher Scientific, C1430) was added at a final concentration of 5 µg/mL and incubated for 10 min. For mitochondrial membrane labeling, JC-1 (Thermo Fisher Scientific, T3168) was added at a final concentration of 10 µg/mL and incubated for 10 min. To monitor the activity of caspases, CellEvent Caspase-3/7 Red detection reagents (Thermo Fisher Scientific, C10423) were used following the manufacturer’s instructions. For nuclear staining, Hoechst 33342 (Cell Signaling Technology, #4082) was added at a final concentration of 5 µg/mL and incubated for 10 min.
Cells were imaged on either a Zeiss LSM 700 or a 3i spinning disk confocal microscope. Samples were imaged with optimized microscope settings. Z-stack, time-lapse, or multi-channel acquisition settings were adjusted based on the experimental requirements. Images were then acquired with the appropriate excitation and emission wavelengths for each fluorophore.
Image processing was performed using Fiji software. For each image/video, the brightness and the contrast were adjusted. The time stamp and the scale bar were added. For quantification, CellProfiler was used. After cell segmentation based on the nucleus, the intensity of the signal of interest was quantified for each cell. Based on the intensity, each cells were labeled as positive or negative and the fraction of positive cells was calculated.

| Compound | release of LDH (oncolytic activity) [1] | effect of inhibitor pretreatment on CKS1-induced release of LDH [1] | also measured |
| --- | --- | --- | --- |
| NGRKACLNPASPIVKKIIPEKMLNS [NC2, mutant of CKS1, single proline inserted in the middle of the α-helix] | did not show oncolytic activity | – | – |
| LTX-315 | – | – | caspase-3 activity [2]: failed to stimulate caspase-3 activity |
| IVKKIIEKMLNS [helical region of CKS1] | induced LDH release | – | solubility in water [3]: poorly soluble in water |
| COC(=O)C[C@H](NC(=O)[C@H](C)NC(=O)[C@@H](NC(=O)OCc1ccccc1)C(C)C)C(=O)CF [Z-VAD, reference compound] (Cbz-Val-Ala-Asp(OMe)-CH2F) | – | did not inhibit the release of LDH | effect of inhibitor pretreatment on CKS1-induced release of calcein [4]: did not inhibit nor slow down the release of calcein |
| CN1C(=O)NC(Cc2c[nH]c3c(Cl)cccc23)C1=O (stereo not shown) [Nec-1s, necrostatin-1 stable, reference compound] | – | did not inhibit the release of LDH | – |
| CCOC(=O)c1ccc(NC2CCCCC2)c(N)c1 [Fer-1, ferrostatin-1, reference compound] | – | did not inhibit the release of LDH | – |
| NGRKACLNPASPIVEEIIEEMLNS [NC1, mutant of CKS1, three lysines replaced with glutamic acids, anionic] | did not show oncolytic activity | – | – |
| NGRKACLNPASP [loop region of CKS1, peptide that contains the N-terminal loop region of CKS1] | did not | – | – |

From article PMC10987543 (Cell Death Discovery, 2024)
